Measurements: ChEMBL document CHEMBL2375353, “Efficient induction of apoptosis in HeLa cells by a novel cationic porphycene photosensitizer” (Eur J Med Chem, 2013)
The source made the active and inactive calls. No cut-off for these calls is given here.

What was measured:
HeLa [1] = test: Induction of apoptosis in human HeLa cells assessed as swollen mitochondria at 0.5 uM incubated for 18 hrs prior to red light irradiation measured after 3 hrs by immunofluorescence method; assay type: functional, cell-based
HeLa [2] = test: Induction of necrosis in human HeLa cells at 0.5 uM incubated for 18 hrs prior to red light irradiation measured after 6 to 24 hrs by neutral red staining; assay type: functional, cell-based
HeLa [3] = test: Induction of apoptosis in human HeLa cells assessed as relocalization of proapoptotic Bax protein within mitochondria at 0.75 to 0.5 uM after 18 hrs by indirect immunofluorescence; assay type: cell-based
HeLa [4] = test: Induction of necrosis in human HeLa cells at 0.5 uM incubated for 18 hrs prior to red light irradiation measured after 6 to 24 hrs by Hoechst-33258 staining; assay type: functional, cell-based
HeLa [5] = test: Induction of necrosis in human HeLa cells assessed as giant bubble formation at 0.75 uM incubated for 18 hrs prior to red light irradiation measured after 1 hr by phase contrast microscopy; assay type: functional, cell-based
HeLa [6] = test: Induction of apoptosis in human HeLa cells incubated for 18 hrs prior to red light irradiation measured after 24 hrs by trypan blue exclusion assay; assay type: functional, cell-based
HeLa [7] = test: Induction of apoptosis in human HeLa cells assessed as microtubule alteration at 0.75 uM incubated for 18 hrs followed by red light irradiation after 3 to 24 hrs by […]; assay type: functional, cell-based
HeLa [8] = test: Induction of apoptosis in human HeLa cells assessed as reduction in vinculin expression at 0.5 uM incubated for 18 hrs followed by red light irradiation measured after 24 hrs by immunostaining assay; assay type: functional, cell-based
HeLa [9] = test: Induction of apoptosis in human HeLa cells assessed as cytochrome c relocation at 0.75 to 0.5 uM after 18 hrs by immunofluorescence method; assay type: cell-based
HeLa [10] = test: Phototoxicity against human HeLa cells at 0.5 uM incubated for 18 hrs prior to red light irradiation measured after 3 to 24 hrs by trypan blue exclusion assay; assay type: functional, cell-based
HeLa [11] = test: Induction of apoptosis in human HeLa cells assessed as trypsin-mediated cell detachment at 0.5 to 0.75 uM incubated for 18 hrs prior to red light irradiation by hemocytometer; assay type: functional, cell-based
HeLa [12] = test: Induction of apoptosis in human HeLa cells assessed as reduction in F-actin expression at 0.5 uM incubated for 18 hrs followed by red light irradiation measured after 6 hrs by immunostaining assay; assay type: functional, cell-based
HeLa [13] = test: Induction of apoptosis in human HeLa cells assessed as reduction in vinculin expression at 0.5 uM incubated for 18 hrs followed by red light irradiation measured after 3 hrs by immunostaining assay; assay type: functional, cell-based
HeLa [14] = test: Phototoxicity against human HeLa cells assessed as cell viability at > 0.5 uM incubated for 18 hrs prior to 3.6 J/cm'2 red light irradiation by MTT assay; assay type: functional
HeLa [15] = test: Induction of apoptosis in human HeLa cells assessed as microtubule alteration at 0.5 uM incubated for 18 hrs followed by red light irradiation after 6 to 24 hrs by […]; assay type: functional, cell-based
HeLa [16] = test: Induction of apoptosis in human HeLa cells assessed as apoptotic chromatin at 0.5 uM incubated for 18 hrs followed by red light irradiation measured after 6 hrs by immunostaining assay; assay type: functional, cell-based
HeLa [17] = test: Induction of necrosis in human HeLa cells at 0.75 uM incubated for 18 hrs followed by red light irradiation by Hoechst-33258 staining; assay type: functional, cell-based
HeLa [18] = test: Induction of ROS generation in human HeLa cells assessed as singlet oxygen luminescence signal at 5 uM after 18 hrs; assay type: functional, cell-based
HeLa [19] = test: Drug uptake in human HeLa cells assessed as localization to lysosome at 0.5 uM after 18 hrs by prior to UV irradiation by fluorescence microscopy; assay type: ADME, cell-based
HeLa [20] = test: Phototoxicity against human HeLa cells at 1 uM incubated for 18 hrs prior to 1.2 J/cm'2 red light irradiation by MTT assay; assay type: functional, cell-based
HeLa [21] = test: Induction of apoptosis in human HeLa cells assessed as reduction in cell volume at 0.5 uM incubated for 18 hrs followed by red light irradiation measured after 3 hrs by Hoechst-33258 staining; assay type: functional, cell-based
HeLa [22] = test: Darktoxicity against human HeLa cells at 0.75 uM after 18 hrs by MTT assay; assay type: cell-based
HeLa [23] = test: Induction of apoptosis in human HeLa cells assessed as changes in microtubules and actin microfilament alteration at 0.75 to 0.5 uM after 18 hrs by immunostaining assay; assay type: cell-based
HeLa [24] = test: Induction of apoptosis in human HeLa cells assessed as membrane blebbing at 0.5 uM incubated for 18 hrs prior to red light irradiation measured after 6 hrs by phase contrast microscopy; assay type: functional, cell-based
HeLa [25] = test: Drug uptake in human HeLa cells assessed as perinuclear localization at 0.5 uM incubated for 18 hrs prior to UV irradiation by fluorescence microscopy; assay type: ADME, cell-based
[26] = Cytotoxicity against human HeLa cells assessed as cell viability after 18 hrs by MTT assay in presence of 1 % FCS; assay type: cell-based; details: read-out: Activity
HeLa [27] = test: Induction of apoptosis in human HeLa cells assessed as fragmented chromatin at 0.5 uM incubated for 18 hrs prior to red light irradiation measured after 6 hrs by immunofluorescence method; assay type: functional, cell-based
HeLa [28] = test: Induction of necrosis in human HeLa cells at 0.5 to 0.75 uM incubated for 18 hrs by Hoechst-33258 staining; assay type: cell-based
HeLa [29] = test: Induction of apoptosis in human HeLa cells at 0.75 to 0.5 uM after 18 hrs by Hoechst-33258 staining; assay type: cell-based
HeLa [30] = test: Induction of apoptosis in human HeLa cells assessed as microtubule alteration at 0.75 to 0.5 uM after 18 hrs by […]; assay type: cell-based
HeLa [31] = test: Induction of necrosis in human HeLa cells assessed as cellular damage at 0.75 uM incubated for 18 hrs followed by red light irradiation measured after 24 hrs; assay type: functional, cell-based
HeLa [32] = test: Induction of apoptosis in human HeLa cells at 0.5 uM incubated for 18 hrs prior to red light irradiation measured after 6 to 24 hrs by Hoechst-33258 staining; assay type: functional, cell-based

Drug uptake (HeLa [19]): Active
Drug uptake (HeLa [25]): Active
SMILES: COCc1ccc(C2=Cc3nc2ccc2[nH]c(cc2-c2ccc(C[n+]4ccccc4)cc2)c2nc(ccc4[nH]c3cc4-c3ccc(C[n+]4ccccc4)cc3)C(c3ccc(C[n+]4ccccc4)cc3)=C2)cc1.[Br-].[Br-].[Br-]
Activity (HeLa [1]): Active
Activity (HeLa [2]): Active
Activity (HeLa [3]): Non-toxic
Activity (HeLa [4]): Active
Activity (HeLa [5]): Active
Activity (HeLa [6]): Active
Activity (HeLa [7]): Active
Activity (HeLa [8]): Active
Activity (HeLa [9]): Non-toxic
Activity (HeLa [10]): Active
Activity (HeLa [11]): Active
Activity (HeLa [12]): Active
Activity (HeLa [13]): Active
Activity (HeLa [14]): <10%
Activity (HeLa [15]): Active
Activity (HeLa [16]): Active
Activity (HeLa [17]): Active
Activity (HeLa [18]): Active
Activity (HeLa [20]): Active
Activity (HeLa [21]): Active
Activity (HeLa [22]): Toxic
Activity (HeLa [23]): Non-toxic
Activity (HeLa [24]): Active
viability at 18 h [26]: 98.6%
Activity (HeLa [27]): Active
Activity (HeLa [28]): Non-toxic
Activity (HeLa [29]): Non-toxic
Activity (HeLa [30]): Non-toxic
Activity (HeLa [31]): Active
Activity (HeLa [32]): Active
